2 compounds from EP3067369A1, “Methods and compositions for the treatment of anti-angiogenic resistant cancer” (Institut d'Investigació Biomèdica de Bellvitge (IDIBELL), priority 2015, dated 2016) can be followed below.

“Also recorded” adds a separate entry of the source.

The test system of series [1] is primary tumor REN 28. In words: Long-term survival / anti-angiogenic resistance experiment: tumors from primary tumor REN 28 in mice. The format is in vivo. From the text: The inventors assessed next the effect of therapy with PD-ECGF inhibitors in a long term survival experiment, wherein the tumors are able to regrow (resistance) and wherein PD-ECGF overexpression has been observed.
A survival experiment was followed, wherein the drugs previously tested on the primary tumor from REN 28 were continuously administered. This tumor line was selected because the inventors this tumor is able to generate an anti-angiogenic resistance phenotype with after treatment with bevacizumab and DC101.
Again, tumors of about 2 mm^3 size were implanted in mice, and the tumors were allowed to develop for 30 days (with a size of about 1,000 mm^3). The time from tumor development to death was measured as the anti-angiogenic resistance.
Tumors were measured and weighted; samples were collected for further processing. Treatments were stopped or changed on day 15. Table 3. Treatment groups.
Several treatment strategies were followed in anti-VEGFR2 resistant tumors: • 1. stop the anti-VEGFR2 (DC101) treatment just when the tumors begin to becomes resistant, and verify if said tumors are able to regrow with or without vasculature (represented as "DC101→R→OFF" treatment group), • 2. change the VEGFR2 inhibition therapy by the inhibition of another pathway (PD-ECGF) (represented as "DC101→R→AEAC" treatment group), • 3. combine the VEGFR2-inhibition therapy (DC101) and the PD-ECGF-inhibition therapy ([…]) (represented as "DC101→R→DC101 1 + AEAC" treatment group).

Series [2] deals with REN 50 cells. The series can be described thus: Effectiveness experiment: REN 50 renal tumors implanted in mice (tumor volume/weight, CD31 vascular density, necrosis). The format is in vivo. The conditions noted are these: for vascular density / tumor vasculature (anti-CD31 immunohistochemistry) / tumor weight and volume / percentage of necrosis: REN 50 tumors; for vascular density / tumor vasculature (anti-CD31 immunohistochemistry) / percentage of necrosis: compared to the control group; for vascular density / tumor vasculature (anti-CD31 immunohistochemistry): Figures 5 and 6; for tumor weight and volume: continuous administration; for percentage of necrosis: hematoxylin-eosin sections, Figure 7. On the procedure:
An effectiveness experiment was performed according to the following scheme: tumors of about 2 mm^3 size were implanted in mice, and the tumors were allowed to develop for 20 days (to a size of about 750 mm^3). The time from tumor development to death was measured as the anti-angiogenic response.
7 mice were implanted per treatment group. REN 50 cells were implanted. Treatment started when mice developed tumors with a volume tumor of about 750 mm^3, and lasted for three weeks. Table 2. Treatment groups
The inventors then analyzed whether these inhibitors produced any effect at the level of tumor vasculature by conducting in immunohistochemistry, using an anti-CD31 antibody as a marker of endothelial cells.
Hematoxylin-eosin stained paraffin sections of tumors obtained from mice from the different treatment groups were analyzed in order to evaluate the degree of necrosis.

Setting [3] is: AEAC added to DC101 after development of resistance (DC101→R→DC101 + AEAC).
[4] abbreviates: therapy changed from DC101 to AEAC at onset of resistance (DC101→R→AEAC).

Turning to `NCCNc1[nH]c(=O)[nH]c(=O)c1Cl` [AEAC, 6-(2-aminoethyl)amino-5-chlorouracil], in series [1] (setting [3]), the “number of vessels / vascular density” value is given as “decreased vascular density”, the toxicity to animals result is recorded as “toxic” and the “tumor size / tumor volume” value is “small tumoral volume; also recorded: sustained effect on tumor volume reduction”. Further, the “average and total survival” value in series [1] (REN 28, continuous treatment, compared to control mice, Figure 8) was “increased average and total survival”. For the same compound, in series [1] (setting [4]), the survival result is “increased survival” and the “time of tumor progression” value is recorded as “delayed the time of tumor progression”. Further, in series [2], the “vascular density / tumor vasculature (anti-CD31 immunohistochemistry)” value was “decreased tumor vasculature”; the “tumor weight and volume” value is “decreased tumor weight and volume”; the percentage of necrosis result is reported as “increased tumor necrosis”. In series [2] (after 21 days of treatment, Figure 6), the “number of vessels (labeled with anti-CD31 antibody)” value was “decrease in the number of vessels”.

As to `Oc1ncnc2c1ncn2[C@@H]1O[C@H](COC(c2ccccc2)(c2ccccc2)c2ccccc2)[C@@H](O)[C@H]1O` [KIN 59, 5'-O-trityl-inosine], in series [2], the “vascular density / tumor vasculature (anti-CD31 immunohistochemistry)” value was “decreased tumor vasculature”; the “tumor weight and volume” value was “decreased tumor weight and volume”; the percentage of necrosis result is recorded as “increased tumor necrosis”. Moreover, the “number of vessels (labeled with anti-CD31 antibody)” value in series [2] (after 15 days of treatment, Figure 5) is reported as “decrease in the number of vessels”.
